The subject of this experiment is IL-2 secretion. Description: Inhibition of IL-2 secretion in PHA-stimulated Jurkat T cells (ELISA). The experiment is classed as cell-based. The following applies: Homo sapiens, PHA stimulation, 20 to 24 hours, IL-2 by ELISA. How it is done:
The CRAC channel modulatory activity of the compounds were thus evaluated by measuring the secretion of IL-2 by antigen stimulated T-cells in vitro. Alternatively, such activity can also be evaluated by assay methods known to one skilled in the art.
Inhibition of IL-2 secretion: Jurkat T cells were seeded at a density of 0.5 to 1 million cells per well in RPMI medium. Test compounds from this invention were added to the cells at different concentrations. This was followed by the addition of PHA, a T cell mitogen after 10 minutes. The cells were then incubated for 20 to 24 hours in a CO2 incubator at 37° C. After incubation with the compounds, cells were centrifuged, the supernatant was collected and processed for ELISA to quantitate the amount of IL-2 secreted. A commercial ELISA kit (R&D Systems, Inc. Minneapolis, Minn., USA) was used to estimate the IL-2 concentrations. Amount of IL-2 secreted by cells stimulated with PHA was considered as a 100% maximal signal and the decrease in amount of IL-2 secreted by cells treated with the test compounds was expressed as percent inhibition of the maximal signal. The dose response data was analyzed using 4-parametric sigmoidal dose response (variable slope) curve—fit.

Usually IC50 stands for the concentration needed to halve the response being measured. The low end stands for higher potency, the high end for lower potency.

Take `CC1(C)COC(c2cc(C(F)(F)F)n(-c3ccc(NCc4c(F)cccc4F)cn3)n2)=N1` [Example 28, N-(2,6-Difluorobenzyl)-6-(3-(4,4-dimethyl-4,5-dihydrooxazol-2-yl)-5-(trifluoromethyl)-1H-pyrazol-1-yl)pyridin-3-amine]: the IC50 is 100 to 1000 nM.
The same measure for `Cn1nc(-c2cc(C3CC3)n(-c3ccc(NC(=O)c4c(F)cccc4F)cn3)n2)oc1=O` [Example 29, N-(6-(5-Cyclopropyl-3-(4-methyl-5-oxo-4,5-dihydro-1,3,4-oxadiazol-2-yl)-1H-pyrazol-1-yl)pyridin-3-yl)-2,6-difluorobenzamide]: 100 to 1000 nM; for `Cn1nc(-c2cc(C3CC3)nn2-c2ccc(NC(=O)c3c(F)cccc3F)cn2)oc1=O` [Example 30, N-(6-(3-Cyclopropyl 5-(4-methyl-5-oxo-4,5-dihydro-1,3,4-oxadiazol-2-yl)-1H-pyrazol-1-yl)pyridin-3-yl)-2,6-difluorobenzamide]: 100 to 1000 nM; for `Cc1cc(-c2nn(C)c(=O)o2)nn1-c1ccc(NC(=O)c2c(F)cccc2F)cn1` [Example 31, 2,6-Difluoro-N-(6-(5-methyl-3-(4-methyl-5-oxo-4,5-dihydro-1,3,4-oxadiazol-2-yl)-1H-pyrazol-1-yl)pyridin-3-yl)benzamide]: above 1000 nM.
The same measure for `Cc1cc(-c2nn(C)c(=O)o2)nn1-c1ccc(NCc2c(F)cccc2F)cn1` [Example 32, 5-(1-(5-((2,6-Difluorobenzyl)amino)pyridin-2-yl)-5-methyl-1H-pyrazol-3-yl)-3-methyl-1,3,4-oxadiazol-2(3H)-one]: below 100 nM; for `CC1(CO)CC(c2cc(C(F)(F)F)n(-c3ccc(NCc4c(F)cccc4F)cn3)n2)=NO1` (stereo not shown) [Example 33, (3-(1-(5-((2,6-Difluorobenzyl)amino)pyridin-2-yl)-5-(trifluoromethyl)-1H-pyrazol-3-yl)-5-methyl-4,5-dihydroisoxazol-5-yl)methanol]: below 100 nM; for `CC1(CO)CC(c2cc(C(F)(F)F)n(-c3ccc(NCc4c(F)cccc4Cl)cn3)n2)=NO1` (stereo not shown) [Example 34, (3-(1-(5-((2-Chloro-6-fluorobenzyl)amino)pyridin-2-yl)-5-(trifluoromethyl)-1H-pyrazol-3-yl)-5-methyl-4,5-dihydroisoxazol-5-yl)methanol]: 100 to 1000 nM.
The same measure for `COC(=O)C1(C)CC(c2cc(C(F)(F)F)n(-c3ccc(NC(=O)c4c(F)cccc4F)cn3)n2)=NO1` (stereo not shown) [Example 35, Methyl 3-(1-(5-(2,6-difluorobenzamido)pyridin-2-yl)-5-(trifluoromethyl)-1H-pyrazol-3-yl)-5-methyl-4,5-dihydroisoxazole-5-carboxylate]: 100 to 1000 nM; for `CC1(CO)CC(c2cc(C(F)(F)F)n(-c3ccc(NC(=O)c4c(F)cccc4F)cn3)n2)=NO1` (stereo not shown) [Example 36, 2,6-Difluoro-N-(6-(3-(5-(hydroxymethyl)-5-methyl-4,5-dihydroisoxazol-3-yl)-5-(trifluoromethyl)-1H-pyrazol-1-yl)pyridin-3-yl)benzamide]: below 100 nM.
In turn, `CC1(C(N)=O)CC(c2cc(C(F)(F)F)n(-c3ccc(NC(=O)c4c(F)cccc4F)cn3)n2)=NO1` (stereo not shown) [Example 37, 3-(1-(5-(2,6-Difluorobenzamido)pyridin-2-yl)-5-(trifluoromethyl)-1H-pyrazol-3-yl)-5-methyl-4,5-dihydroisoxazole-5-carboxamide] had an IC50 below 100 nM.
Compound `Cn1nc(-c2cc(C(F)(F)F)n(-c3ccc(NC(=O)c4c(F)cccc4F)nc3)n2)oc1=O` [Example 38, 2,6-Difluoro-N-(5-(3-(4-methyl-5-oxo-4,5-dihydro-1,3,4-oxadiazol-2-yl)-5-(trifluoromethyl)-1H-pyrazol-1-yl)pyridin-2-yl)benzamide] returned an IC50 below 100 nM.
The same measure for `Cn1nc(-c2cc(C(F)(F)F)n(-c3ccc(NC(=O)c4c(F)cccc4Cl)nc3)n2)oc1=O` [Example 39, 2-Chloro-6-fluoro-N-(5-(3-(4-methyl-5-oxo-4,5-dihydro-1,3,4-oxadiazol-2-yl)-5-(trifluoromethyl)-1H-pyrazol-1-yl)pyridin-2-yl)benzamide]: below 100 nM; for `Cc1cccc(F)c1C(=O)Nc1ccc(-n2nc(-c3nn(C)c(=O)o3)cc2C(F)(F)F)cn1` [Example 40, 2-Fluoro-6-methyl-N-(5-(3-(4-methyl-5-oxo-4,5-dihydro-1,3,4-oxadiazol-2-yl)-5-(trifluoromethyl)-1H-pyrazol-1-yl)pyridin-2-yl)benzamide]: below 100 nM; for `Cn1nc(-c2cc(C(F)(F)F)n(-c3ccc(NC(=O)c4ccccc4F)nc3)n2)oc1=O` [Example 41, 2-Fluoro-N-(5-(3-(4-methyl-5-oxo-4,5-dihydro-1,3,4-oxadiazol-2-yl)-5-(trifluoromethyl)-1H-pyrazol-1-yl)pyridin-2-yl)benzamide]: below 100 nM.
The same measure for `Cn1nc(-c2cc(C(F)(F)F)n(-c3ccc(NC(=O)c4cccc(F)c4F)nc3)n2)oc1=O` [Example 42, 2,3-Difluoro-N-(5-(3-(4-methyl-5-oxo-4,5-dihydro-1,3,4-oxadiazol-2-yl)-5-(trifluoromethyl)-1H-pyrazol-1-yl)pyridin-2-yl)benzamide]: below 100 nM; for `Cn1nc(-c2cc(C(F)(F)F)n(-c3ccc(NC(=O)c4cc(F)c(F)cc4F)nc3)n2)oc1=O` [Example 43, 2,4,5-Trifluoro-N-(5-(3-(4-methyl-5-oxo-4,5-dihydro-1,3,4-oxadiazol-2-yl)-5-(trifluoromethyl)-1H-pyrazol-1-yl)pyridin-2-yl)benzamide]: below 100 nM; for `Cn1nc(-c2cc(C(F)(F)F)n(-c3ccc(NC(=O)c4ccc(F)c(F)c4F)nc3)n2)oc1=O` [Example 44, 2,3,4-Trifluoro-N-(5-(3-(4-methyl-5-oxo-4,5-dihydro-1,3,4-oxadiazol-2-yl)-5-(trifluoromethyl)-1H-pyrazol-1-yl)pyridin-2-yl)benzamide]: below 100 nM.
The same measure for `Cn1nc(-c2cc(C(F)(F)F)n(-c3ccc(NC(=O)c4ccc(F)cc4F)nc3)n2)oc1=O` [Example 45, 2,4-Difluoro-N-(5-(3-(4-methyl-5-oxo-4,5-dihydro-1,3,4-oxadiazol-2-yl)-5-(trifluoromethyl)-1H-pyrazol-1-yl)pyridin-2-yl)benzamide]: below 100 nM; for `Cc1cccc(C(=O)Nc2ccc(-n3nc(-c4nn(C)c(=O)o4)cc3C(F)(F)F)cn2)c1C` [Example 46, 2,3-Dimethyl-N-(5-(3-(4-methyl-5-oxo-4,5-dihydro-1,3,4-oxadiazol-2-yl)-5-(trifluoromethyl)-1H-pyrazol-1-yl)pyridin-2-yl)benzamide]: below 100 nM.
With `Cn1nc(-c2cc(C(F)(F)F)n(-c3ccc(NC(=O)c4ccccc4Cl)nc3)n2)oc1=O` [Example 47, 2-Chloro-N-(5-(3-(4-methyl-5-oxo-4,5-dihydro-1,3,4-oxadiazol-2-yl)-5-(trifluoromethyl)-1H-pyrazol-1-yl)pyridin-2-yl)benzamide], the IC50 was below 100 nM.
The same measure for `Cc1ccccc1C(=O)Nc1ccc(-n2nc(-c3nn(C)c(=O)o3)cc2C(F)(F)F)cn1` [Example 48, 2-Methyl-N-(5-(3-(4-methyl-5-oxo-4,5-dihydro-1,3,4-oxadiazol-2-yl)-5-(trifluoromethyl)-1H-pyrazol-1-yl)pyridin-2-yl)benzamide]: below 100 nM; for `CCc1ccc(C(=O)Nc2ccc(-n3nc(-c4nn(C)c(=O)o4)cc3C(F)(F)F)cn2)cc1` [Example 49, 4-Ethyl-N-(5-(3-(4-methyl-5-oxo-4,5-dihydro-1,3,4-oxadiazol-2-yl)-5-(trifluoromethyl)-1H-pyrazol-1-yl)pyridin-2-yl)benzamide]: 100 to 1000 nM.
The compound `Cn1nc(-c2cc(C(F)(F)F)n(-c3ccc(NC(=O)c4ccc5ccccc5c4)nc3)n2)oc1=O` [Example 50, N-(5-(3-(4-Methyl-5-oxo-4,5-dihydro-1,3,4-oxadiazol-2-yl)-5-(trifluoromethyl)-1H-pyrazol-1-yl)pyridin-2-yl)-2-naphthamide] registered an IC50 of 100 to 1000 nM.
The same measure for `Cn1nc(-c2cc(C(F)(F)F)n(-c3ccc(NCc4c(F)cccc4F)nc3)n2)oc1=O` [Example 51, 5-(1-(6-((2,6-Difluorobenzyl)amino)pyridin-3-yl)-5-(trifluoromethyl)-1H-pyrazol-3-yl)-3-methyl-1,3,4-oxadiazol-2(3H)-one]: below 100 nM; for `Cn1nc(-c2cc(C(F)(F)F)n(-c3ccc(NCc4c(F)cccc4Cl)nc3)n2)oc1=O` [Example 52]: below 100 nM.
The same measure for `Cc1cccc(F)c1CNc1ccc(-n2nc(-c3nn(C)c(=O)o3)cc2C(F)(F)F)cn1` [Example 53, 5-(1-(6-((2-Fluoro-6-methylbenzyl)amino)pyridin-3-yl)-5-(trifluoromethyl)-1H-pyrazol-3-yl)-3-methyl-1,3,4-oxadiazol-2(3H)-one]: below 100 nM; for `Cn1nc(-c2cc(C(F)(F)F)n(-c3ccc(C(=O)Nc4c(F)cccc4F)cn3)n2)oc1=O` [Example 54, N-(2,6-Difluorophenyl)-6-(3-(4-methyl-5-oxo-4,5-dihydro-1,3,4-oxadiazol-2-yl)-5-(trifluoromethyl)-1H-pyrazol-1-yl)nicotinamide]: 100 to 1000 nM.
The compound `Cn1nc(-c2cc(C(F)(F)F)n(-c3ccc(C(=O)Nc4c(F)cccc4Cl)cn3)n2)oc1=O` [Example 55, N-(2-Chloro-6-fluorophenyl)-6-(3-(4-methyl-5-oxo-4,5-dihydro-1,3,4-oxadiazol-2-yl)-5-(trifluoromethyl)-1H-pyrazol-1-yl)nicotinamide] showed an IC50 below 100 nM.
